Experimental data published in patent US5985603A, “P2x receptor DNA and protein sequence” (Glaxo Group Limited, priority 1994, dated 1999).
Structures can show the parent of a compound that is named as a salt.

How the values were obtained:
[1] = target: T1, rat vas/human bladder P2X cDNA clone (Homo sapiens, UniProt P51575); assay: functional properties of cloned P2X receptors (electrical recordings): bladder; assay type: cell-based; details: Table A; for Ca++ block, bladder: extracellular calcium 30 mM in text
T1 construct: expressed in transfected cells; host or cells: HEK293 cells (oocytes are also named for the functional characterisation)
T1 sequence (P51575 1-399): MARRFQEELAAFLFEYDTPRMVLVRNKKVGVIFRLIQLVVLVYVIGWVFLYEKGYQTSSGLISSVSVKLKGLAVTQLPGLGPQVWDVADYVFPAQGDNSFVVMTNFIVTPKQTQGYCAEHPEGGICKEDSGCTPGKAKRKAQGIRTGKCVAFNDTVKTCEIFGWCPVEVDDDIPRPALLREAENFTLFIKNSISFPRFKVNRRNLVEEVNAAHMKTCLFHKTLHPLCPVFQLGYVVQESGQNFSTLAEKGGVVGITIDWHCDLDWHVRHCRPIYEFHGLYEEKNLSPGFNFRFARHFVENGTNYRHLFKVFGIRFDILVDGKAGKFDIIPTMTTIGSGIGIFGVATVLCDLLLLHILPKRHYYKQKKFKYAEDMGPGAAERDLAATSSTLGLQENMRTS
Protocol: DNA concentration used was 1 mg/2 ml medium placed into a 35 mm petri dish containing four 11 mm diameter coverslips on which HEK cells were placed at 10,000 cells per coverslip. […] Currents were recorded from HEK 293 cells using whole-cell recording methods and the AXOPATCH™ 200 amplifier (Axon Instruments); patch pipettes (5 M.OMEGA.) contained (mM) Cs or K aspartate 140, NaCl 5, EGTA 11, HEPES 5. […] All recordings performed at room temperature. Data acquisition and analysis were performed using pCLAMP™ and AXOGRAPH™ software (Axon Instruments). […] ATP was applied by U-tube typically for 1 s; data was sampled at 5 kHz in 2 s segments beginning 300 ms prior to onset of agonist (ATP) application and filtered at 1 kHz.

[2] = target: T2, rat superior cervical ganglion P2X receptor (clone 3) (Rattus norvegicus, UniProt P51577); assay: functional properties of cloned P2X receptors (electrical recordings): clone 3; assay type: cell-based; details: for Ca++ block, clone 3: extracellular calcium 30 mM in text
T2 construct: The insert appeared to be a full length cDNA; expressed in transfected cells; host or cells: HEK293 cells transfected with pcDNA3 construct p464 (also oocytes injected with in vitro transcribed RNA)
T2 sequence (P51577 1-388): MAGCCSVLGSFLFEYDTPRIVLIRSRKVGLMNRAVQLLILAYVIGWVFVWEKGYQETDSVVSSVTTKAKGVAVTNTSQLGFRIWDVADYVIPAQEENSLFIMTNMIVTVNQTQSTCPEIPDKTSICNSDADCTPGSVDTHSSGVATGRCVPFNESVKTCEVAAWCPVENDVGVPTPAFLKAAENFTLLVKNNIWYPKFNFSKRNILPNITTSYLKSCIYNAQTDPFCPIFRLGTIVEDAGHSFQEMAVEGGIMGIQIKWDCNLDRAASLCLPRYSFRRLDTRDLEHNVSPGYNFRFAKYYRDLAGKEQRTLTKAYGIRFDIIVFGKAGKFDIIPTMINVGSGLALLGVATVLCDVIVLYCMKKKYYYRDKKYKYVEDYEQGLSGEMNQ
Protocol: (§1) HEK 293 cells were transfected by the lipofectin method (Felgner et al., Proc. Nat'l. Acad. Sci. USA 84 7413-7417 (1987)) with P2X -plasmid. DNA concentration used was 1 mg/2 ml medium placed into a 35 mm petri dish containing four 11 mm diameter coverslips on which HEK cells were placed at 10,000 cells per coverslip. […] Currents were recorded from HEK 293 cells using whole-cell recording methods and the AXOPATCH™ 200 amplifier (Axon Instruments); patch pipettes (5 M.OMEGA.) contained (mM) Cs or K aspartate 140, NaCl 5, EGTA 11, HEPES 5. The external solution was (mM) NaCl 150, KCl2, CaCl2 2, MgCl2 1, HEPES 5 and glucose 11; the pH and osmolarity of both solutions were maintained at 7.3 and 305 mosmol/l respectively. All recordings performed at room temperature. Data acquisition and analysis were performed using pCLAMP™ and AXOGRAPH™ software (Axon Instruments). […] The pH and osmolarity of the solutions were 7.4 and 295 mosmol/l respectively. For single channel measurements, a […]™ 500 amplifier and outside-out recording methods were used (Adelman et al., Neuron 9 209-216 (1992)). Wax-coated patch pipettes (5-10 M.OMEGA.) contained (mM) K-gluconate 115, HEPES 5, BAPTA 5 and MgCl2 0.5, external solution was 96 mM NaCl, 2 mM KCl, 1.8 mM CaCl2, 1 mM MgCl2, 5 mM Hepes pH 7.6, and 5 mM sodium pyruvate.
(§2) The functional characterisation of the clone illustrated in FIG. 2 (referred to herein as clone 3) was carried out by electrical recordings from transfected HEK293 cells and from oocytes injected with the in vitro transcribed RNA, as described in Example 4 for the rat vas deferens P2X receptor. Table A summarizes the main properties of clone 3 as compared to those of rat vas/human bladder cDNA clone, and the PC12 cDNA clone (provided by David Julius and Tony Brake of the University of California at San Francisco).

PC12 P2X receptor = target: T3, PC12 P2X receptor (Rattus norvegicus, UniProt P49653); assay: functional properties of cloned P2X receptors (electrical recordings): PC12; assay type: cell-based; details: Table A; for Ca++ block, PC12: extracellular calcium 30 mM in text
T3 construct: host or cells: HEK293 cells (oocytes are also named for the functional characterisation of clone 3)
T3 sequence (P49653 1-472): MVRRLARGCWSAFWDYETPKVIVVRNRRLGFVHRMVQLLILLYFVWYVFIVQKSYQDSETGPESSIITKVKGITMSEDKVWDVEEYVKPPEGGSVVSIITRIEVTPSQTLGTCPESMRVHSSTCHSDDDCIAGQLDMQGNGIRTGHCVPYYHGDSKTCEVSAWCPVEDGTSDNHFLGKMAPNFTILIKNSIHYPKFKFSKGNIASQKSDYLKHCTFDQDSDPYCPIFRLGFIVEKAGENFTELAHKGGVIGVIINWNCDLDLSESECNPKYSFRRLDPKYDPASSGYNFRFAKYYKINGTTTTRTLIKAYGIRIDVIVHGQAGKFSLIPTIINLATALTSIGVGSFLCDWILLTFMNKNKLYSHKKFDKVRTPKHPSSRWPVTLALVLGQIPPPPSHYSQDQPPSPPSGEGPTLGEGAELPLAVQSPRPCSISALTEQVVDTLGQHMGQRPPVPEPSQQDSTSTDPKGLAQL
Protocol: as §1, §2

hP2X mRNA = assay: induction of hP2X mRNA in HL60 cells by Northern blot; assay type: cell-based, human; details: 1.8 and 2.6 kb bands
Protocol: HL60 cells (human promyelocytes ATCC CCL240) were passaged twice weekly in RPMI-1640 supplemented with 25 mnM HEPES, 2 mM Glutamax II, and 10% heat-inactivated fetal calf serum (GIBCO BRL) . For each experiment 33×10^6 cells were resuspended at 2.5×10^5 cells/ml in medium containing either phorbol mystate acetate (100 nM), 1. 1% DMSO, or dibutyryl cAMP (200 uM) (SIGMA) for the indicated times.
PolyA^+ RNAs were obtained from Clontech Laboratories Inc. (Palo Alto) except for the urinary bladder and HL60 mRNA which were prepared as described (Valera et al (1994)--supra) . Samples were quantified by measuring the O.D. at 260 nm, and by staining the membrane with methylene blue. The RNA were fractionated on a 1% agarose--6% formaldehyde gel and electroblotted to a non-charged nylon membrane (BDH). Prehybridisation at 68° C. was performed for 6 hours in hybridisation buffer (50% formamide, 5× SSC, 2% blocking buffer (Boehringer Mannheim), 0.1%6 laurolylsarcosine, 0.02% SDS). Hybridisation was overnight at 68° C. in fresh hybridisation buffer with a digoxigenin-UTP labelled riboprobe (100 ng/ml) corresponding to the entire hP2 × sequence. The membrane was washed at 68° C.; twice in 2× SSC+0.1% SDS, and twice in 0.1× SSC+0.1% SDS. Chemiluminescent detection of hybridisation was carried at room temperature as follows: the membrane was rinsed 5 min in buffer B1 (0.1 M maleic acid, 0.15 M NaCl, pH 7.5), saturated for 1 hour in 1% blocking buffer (B2), incubated 30 min with anti-digoxigenin-antibody alkaline phosphatase conjugated (750 u/ml, Boehringer Mannheim) diluted 1:15000 in B2, washed in B1+0.30% tween 20 (1× 5 min, 1× 15 min, 1× 1 h), equilibrated for 5 min in buffer B3 (0.1 M Tris HCl pH 9.5, 0.1 M NaCl, 50 mM MgCl2), incubated 45-60 sec in lumigen PPD (Boehringer Mannheim) diluted 1:100 in B3. The humid membrane was sealed in a plastic bag, incubated 15 min at 37° C., and exposed 15 to 20 min to Hyperfilm-ECL (Amersham). […]

hP2X = target: T4, hP2X (Homo sapiens, UniProt P51575); assay: inward currents evoked by purinoceptor agonists in Xenopus oocytes expressing hP2X; assay type: cell-based; details: for full agonist activity: concentration-response curves; for agonist profile (rank order): oocytes expressing hP2X; for relative potency: relative to ATP, from EEC50
T4 construct: expressed in transfected cells; host or cells: Xenopus oocytes injected with in vitro transcribed RNA
T4 sequence (P51575 1-399): T1 sequence (P51575 1-399)
Protocol: Human urinary bladder P2X cDNA, subcloned into the pBKCMV expression vector, was linearized with Notl, and transcribed in vitro with T3 polymerase in the presence of cap analogue m7G(5')ppp(5')G. Defolliculated Xenopus oocytes (Bertrand et al, Electrophysiology of neuronal nicotinic acetylcholine receptors expressed in Xenopus oocytes following nuclear injection of genes or cDNAs Meth Neurosci 4: 174-193 (1991)) were injected with 50 ng of human P2X in vitro transcribed RNA, and incubated at 18° C. for 2-6 days in the ND96 solution (mM): NaCl96, KCl2, MgCl2 1, CaCl2 2, sodium pyruvate 5, HEPES 5, ph 7.6-7.5, penicillin (10 U/ml), and streptomycin (10 μg/ml).
Oocytes were placed in a 1 ml chamber and superfused at 2-3 ml/min with ND96 solution with 0.1 mM BaCl2 replacing the 2 mM CaCl2 to prevent activation of endogenous calcium-activated chloride currents (Barish, A transient calcium-dependent chloride current in the immature Xenopus oocytes J Physiol 342: 309-325 (1983)). Currents were measured using a two-electrode voltage-clamp amplifier (Geneclamp Axon Instruments)at a holding potential of -60 mV. Microelectrodes were filled with 3 M KCl (0.5-2 M.OMEGA.). Data were collected using PClamp software (Axon Instruments). […] Antagonists were applied both in the superfusate and together with ATP in the U-tube solution.
Concentration response curves for purinoceptor agonists were fitted with a Hill slope of 1. […] Data are presented throughout as mean ± SEM for a given number of oocytes.

P2X-purinoceptor = details: cited from earlier work
[3] = listed as Extracellular calcium

Row | SMILES | induction of P2X mRNA in HL60 cells (hP2X mRNA) | EC50 (hP2X) [µM] | full agonist activity (hP2X) | agonist profile (rank order) (hP2X) | relative potency (hP2X) | agonist potency order in whole tissue studies (P2X-purinoceptor) | other results
1 | [Ca+2] [Ca^++, calcium] |  |  |  |  |  |  | Ca++ block, bladder [1]: none; Ca++ block, bladder [1, 3]: does not block current; Ca++ block, clone 3 ([2]; Table A): intermediate; Ca++ block, clone 3 ([2]; Table A, listed as Extracellular calcium): intermediate in sensitivity; Ca++ block, PC12 (PC12 P2X receptor): very strong; Ca++ block, PC12 (PC12 P2X receptor; [3]): inhibits the inward current
2 | CCCC(=O)Nc1ncnc2c1ncn2[C@@H]1O[C@@H]2COP(=O)(O)O[C@H]2[C@H]1OC(=O)CCC [dibutryl cAMP, dibutyryl cAMP] | produced an increase in P2X mRNA |  |  |  |  |  | 
3 | CSc1nc(N)c2ncn([C@@H]3O[C@H](COP(=O)(O)OP(=O)(O)OP(=O)(O)O)[C@@H](O)[C@H]3O)c2n1 [2MeSATP, 2-MethylthioATP tetra sodium salt] |  | 0.6 ± 0.1 | full agonists | 2MeSATP≥ATP>α,β,-meATP | 1.36 | α,β,-meATP >>2MeSATP≥ATP | comparison of concentration-effect curves (hP2X; ATP, 2MeSATP and 2-chloro-ATP): superimposable
4 | CCCCCCCCCCCCCC(=O)O[C@@H]1[C@@H](C)[C@@]2(O)[C@@H](C=C(CO)C[C@]3(O)C(=O)C(C)=C[C@@H]23)[C@@H]2C(C)(C)[C@]12OC(C)=O [phorbol diesters, phorbol mystate acetate] | produced an increase in P2X mRNA |  |  |  |  |  | 
5 | C[S+](C)[O-] [DMSO] | produced an increase in P2X mRNA |  |  |  |  |  | 
6 | Nc1ncnc2c1ncn2[C@@H]1O[C@H](COP(=O)(O)CP(=O)(O)OP(=O)(O)O)[C@@H](O)[C@H]1O [α,β-meATP, α,β-methylene ATP lithium salt] |  | 3.6 ± 1.6 | full agonists | 2MeSATP≥ATP>α,β,-meATP | 0.23 | α,β,-meATP >>2MeSATP≥ATP | EC50 ([1]; parameter (EC50) not given, read-out: agonist profile, bladder): 3 µM; EC50 ([2]; Table A, parameter (EC50) not given, read-out: agonist profile, clone 3): > 100 µM; agonist action ([2]; clone 3 (FIG. 14)): little or no agonist action; EC50 (PC12 P2X receptor; parameter (EC50) not given, read-out: agonist profile, PC12): > 100 µM
